From ChEMBL document CHEMBL1128764, “Peptidyl aldehyde derivatives as potent and selective inhibitors of cathepsin L” (Bioorg Med Chem Lett, 1995)
Activity calls are given as the source filed them. The calls are words filed in the database; no cut-off is given here. Where a SMILES comes first, the peptide text is derived from it. The star is where a group is joined. Cbz = O=C(OCc1ccccc1)*

How the values were obtained:
[1] = biological target: T1, Calpain-2 catalytic subunit (Homo sapiens, UniProt P17655); experiment: Compound was tested for its inhibitory activity against Calpain 2
T1 sequence (P17655 whole entry): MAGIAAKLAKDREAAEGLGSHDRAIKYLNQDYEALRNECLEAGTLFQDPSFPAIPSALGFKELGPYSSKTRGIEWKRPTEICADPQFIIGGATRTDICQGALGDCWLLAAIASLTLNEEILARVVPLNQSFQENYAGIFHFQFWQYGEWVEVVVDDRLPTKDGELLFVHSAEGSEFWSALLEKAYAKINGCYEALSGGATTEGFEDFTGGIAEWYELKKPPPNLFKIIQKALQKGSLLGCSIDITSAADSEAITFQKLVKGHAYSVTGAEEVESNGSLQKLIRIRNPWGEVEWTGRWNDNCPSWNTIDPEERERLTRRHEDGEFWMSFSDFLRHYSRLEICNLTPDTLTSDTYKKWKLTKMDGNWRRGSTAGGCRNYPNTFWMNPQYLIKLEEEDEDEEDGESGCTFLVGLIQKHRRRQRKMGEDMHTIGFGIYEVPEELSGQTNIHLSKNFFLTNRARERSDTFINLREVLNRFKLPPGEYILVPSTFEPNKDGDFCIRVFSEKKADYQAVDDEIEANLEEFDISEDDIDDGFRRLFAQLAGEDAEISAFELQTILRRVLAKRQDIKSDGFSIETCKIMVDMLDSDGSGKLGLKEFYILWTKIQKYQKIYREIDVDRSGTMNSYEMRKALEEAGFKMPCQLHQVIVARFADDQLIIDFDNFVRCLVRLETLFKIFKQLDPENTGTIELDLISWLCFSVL

[2] = Compound was tested for its inhibitory activity against cathepsin L
[3] = biological target: Chymotrypsinogen A (Bos taurus) (UniProt P00766); experiment: Compound was tested for its inhibitory activity against alpha-chymotrypsin at concentration less than 1000 ng/ml; no inhibition
Cathepsin B [4] = biological target: T2, Cathepsin B (Homo sapiens, UniProt P07858); experiment: Ratio of Inhibitory activity against cathepsin B/cathepsin L
Cathepsin B [5] = biological target: T2, Cathepsin B; experiment: Compound was tested for its inhibitory activity against cathepsin B
[6] = biological target: T1, Calpain-2 catalytic subunit; experiment: Compound was tested for its inhibitory activity against calpain 2

Row | SMILES | IC50 [1] [nM] | IC50 [2] [nM] | inhibition [3] | Ratio (Cathepsin B [4]) | IC50 (Cathepsin B [5]) [nM] | IC50 [6] [nM]
1 | O=C(N[C@@H](Cc1ccccc1)C(=O)N[C@@H](Cc1ccccc1)C(=O)O)OCc1ccccc1 (Cbz-Phe-Phe-OH) | 104 | 0.74 | inactive | 94.2 | 69.7 | –
2 | COc1ccc(C[C@H](NC(=O)[C@H](Cc2ccccc2)NC(=O)OCc2ccccc2)C(=O)O)cc1 (Cbz-Phe-Tyr(Me)-OH) | – | 2.95 | inactive | 33.1 | 97.7 | 104
3 | CC(C)C[C@H](NC(=O)[C@H](Cc1ccccc1)NC(=O)OCc1ccccc1)C(=O)O (Cbz-Phe-Leu-OH) | – | 0.78 | inactive | 22.7 | 17.7 | –
4 | O=C(N[C@@H](Cc1ccccc1)C(=O)N[C@@H](Cc1ccc(O)cc1)C(=O)O)OCc1ccccc1 (Cbz-Phe-Tyr-OH) | – | 0.85 | inactive | 100 | 85.1 | 184
5 | CC(=O)N[C@@H](CC(C)C)C(=O)N[C@@H](CC(C)C)C(=O)N[C@H](C=O)CCCNC(=N)N [LEUPEPTIN] | – | 70.3 | inactive | 1.66 | 117 | –
6 | CCCCOc1ccc(C[C@H](NC(=O)[C@H](Cc2ccccc2)NC(=O)OCc2ccccc2)C(=O)O)cc1 | – | 6.96 | – | 120 | 836 | 79.6
7 | C[C@H](NC(=O)[C@H](Cc1ccccc1)NC(=O)OCc1ccccc1)C(=O)O | – | 15.5 | inactive | 2.91 | 45.1 | –
